Test results as given in the NIST ThermoML archive (doi:10.1021/je500762n).
Numbers after ± are expanded uncertainties.

Experiments:
[1] = Molar enthalpy of transition or fusion; settings: Crystal; DSC
[2] = Crystal; DTA

| Molar enthalpy of transition or fusion [1] | Normal melting temperature [2] | Structure (SMILES) |
| --- | --- | --- |
| 4.8 ± 0.167 kcal/mol | 86.2 ± 0.5 °C | CCCCCCC[n+]1csc2ccccc21.F[P-](F)(F)(F)(F)F [3-heptylbenzo[d]thiazol-3-ium hexafluorophosphate] |
| 5.62 ± 0.167 kcal/mol | 85.64 ± 0.5 °C | CCCCCC[n+]1csc2ccccc21.F[P-](F)(F)(F)(F)F [N-hexylbenzothiazolium hexafluorophosphate] |
| 3.59 ± 0.12 kcal/mol | 61.07 ± 0.5 °C | CCCCCCCC[n+]1csc2ccccc21.F[P-](F)(F)(F)(F)F [N-octylbenzothiazolium hexafluorophosphate] |
| 7.22 ± 0.215 kcal/mol | 139.11 ± 0.5 °C | CCCCC[n+]1csc2ccccc21.F[P-](F)(F)(F)(F)F [N-pentylbenzothiazolium hexafluorophosphate] |
